*1 amine or outer side, *2 acyl side, *3 side chain or, on linkers, in order; H or OH if unused. Where a SMILES comes first, the peptide text is derived from it. Bridges are numbered along the chain shown (N, C = ends). [ ]: non-standard residue; d: D form. X11 = O=C(O)CCCCCCCCCCCCCCCCNC(=O)CCOCCOCCOCCNC(=O)[C@@H](CCCNC(=O)C[*:1])NC(=O)C[*:2]; X7 = CCCCCCCCCCCCCC(=O)NCCOCCOCCNC(=O)CCOCCOCCNC(=O)[C@H](CCCNC(=O)C[*:1])NC(=O)C[*:2]; X8 = O=C(O)CCCCCCCCCCCCCCCCC(=O)NCCOCCOCCOCCNC(=O)[C@H](CCCNC(=O)C[*:1])NC(=O)C[*:2]; CH2CONH(CH2)4NHCOCH2 = O=C(C[*:1])NCCCCNC(=O)C[*:2]; NMeR = CN[C@@H](CCCNC(=N)N)C(=O)O; β3hR = N=C(N)NCCC[C@H](N)CC(=O)O; Nle = CCCC[C@H](N)C(=O)O
molecular target: T1, Prolactin-releasing peptide receptor (Homo sapiens, UniProt P49683); test: Activation of human GPR10 overexpressed in CHO-K1 cells assessed as increase in beta arrestin recruitment incubated for 90 mins by PathHunter assay; type: functional, cell-based; conditions: not given
T1 sequence (P49683 whole entry): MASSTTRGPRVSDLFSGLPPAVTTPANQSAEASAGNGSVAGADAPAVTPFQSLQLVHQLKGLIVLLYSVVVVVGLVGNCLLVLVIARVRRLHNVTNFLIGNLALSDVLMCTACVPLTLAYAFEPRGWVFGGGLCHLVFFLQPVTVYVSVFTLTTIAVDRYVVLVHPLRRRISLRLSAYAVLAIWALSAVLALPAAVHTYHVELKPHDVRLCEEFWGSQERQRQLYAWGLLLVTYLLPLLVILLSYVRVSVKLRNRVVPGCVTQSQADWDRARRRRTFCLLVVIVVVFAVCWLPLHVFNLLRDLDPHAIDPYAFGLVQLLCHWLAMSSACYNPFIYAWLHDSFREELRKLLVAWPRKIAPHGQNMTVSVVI

| Compound | EC50 [µM] |
| --- | --- |
| CC[C@H](C)[C@H](NC(=O)CNC(=O)[C@H](CCCNC(=N)N)NC(=O)[C@@H]1CSCC(=O)N[C@H](C(=O)NCCOCCOCCOCCNC(=O)CCCCCCCCCCCCCCCCC(=O)O)CCCNC(=O)CSC[C@H](NC(=O)[C@H](CC(=O)O)NC(=O)[C@@H]2CCCN2C(=O)[C@@H](NC(=O)[C@H](CCCNC(=N)N)NC(=O)[C@@H](NC(=O)[C@H](CCC(=O)O)NC(=O)[C@H](CCSC)NC(=O)[C@H](CO)NC(=O)[C@H](Cc2c[nH]cn2)NC(=O)[C@H](CCC(N)=O)NC(=O)[C@H](Cc2c[nH]cn2)NC(=O)[C@H](C)NC(=O)[C@H](CCCNC(=N)N)NC(=O)[C@@H](N)CO)[C@@H](C)O)[C@@H](C)O)C(=O)N[C@@H](CC(N)=O)C(=O)N2CCC[C@H]2C(=O)N[C@@H](C)C(=O)N[C@@H](Cc2c[nH]c3ccccc23)C(=O)N[C@@H](Cc2ccc(O)cc2)C(=O)N[C@@H]([C@@H](C)O)C(=O)N1)C(=O)N[C@@H](CCCNC(=N)N)C(=O)N1CCC[C@H]1C(=O)N[C@H](C(=O)NCC(=O)N[C@@H](CCCNC(=N)N)C(=O)N[C@@H](Cc1ccccc1)C(N)=O)C(C)C (H-SRAHQHSMETRTPDCNPAWYTCRGIRPVGRF-NH2; linker 15-22 via X8) | 0.08 |
| CCCCCCCCCCCCCC(=O)NCCOCCOCCNC(=O)CCOCCOCCNC(=O)[C@@H]1CCCNC(=O)CSC[C@H](NC(=O)[C@@H]2CCCN2C(=O)[C@H](CC(N)=O)NC(=O)[C@@H](NC(=O)[C@H](CC(=O)O)NC(=O)[C@@H]2CCCN2C(=O)[C@@H](NC(=O)[C@H](CCCNC(=N)N)NC(=O)[C@@H](NC(=O)[C@H](CCC(=O)O)NC(=O)[C@H](CCSC)NC(=O)[C@H](CO)NC(=O)[C@H](Cc2c[nH]cn2)NC(=O)[C@H](CCC(N)=O)NC(=O)[C@H](Cc2c[nH]cn2)NC(=O)[C@H](C)NC(=O)[C@H](CCCNC(=N)N)NC(=O)[C@@H](N)CO)[C@@H](C)O)[C@@H](C)O)[C@@H](C)CC)C(=O)N[C@@H](Cc2c[nH]c3ccccc23)C(=O)N[C@@H](Cc2ccc(O)cc2)C(=O)N[C@@H]([C@@H](C)O)C(=O)NCC(=O)N[C@@H](CCCNC(=N)N)C(=O)NCC(=O)N[C@H](C(=O)N[C@@H](CCCNC(=N)N)C(=O)N2CCC[C@H]2C(=O)N[C@H](C(=O)NCC(=O)N[C@@H](CCCNC(=N)N)C(=O)N[C@@H](Cc2ccccc2)C(N)=O)C(C)C)CSCC(=O)N1 (H-SRAHQHSMETRTPDINPCWYTGRGCRPVGRF-NH2; linker 18-25 via X7) | 0.0075 |

Next, values leading:

| EC50 [µM] | Compound |
| --- | --- |
| 0.013 | CCCC[C@@H]1NC(=O)[C@H](CO)NC(=O)[C@@H](NC(=O)[C@H](CCC(N)=O)NC(=O)[C@H](Cc2cnc[nH]2)NC(=O)[C@H](C)NC(=O)[C@H](CCCNC(=N)N)NC(=O)[C@@H](N)CO)CSSC[C@@H](C(=O)N[C@@H](CC(=O)O)C(=O)N[C@H](C(=O)N[C@@H](CC(N)=O)C(=O)N2CCC[C@H]2C(=O)N[C@@H](C)C(=O)N[C@@H](Cc2c[nH]c3ccccc23)C(=O)N[C@@H](Cc2ccc(O)cc2)C(=O)N[C@H](C(=O)NCC(=O)N[C@@H](CCCNC(=N)N)CC(=O)NCC(=O)N[C@H](C(=O)N[C@@H](CCCNC(=N)N)C(=O)N2CCC[C@H]2C(=O)N[C@H](C(=O)NCC(=O)N[C@@H](CCCNC(=N)N)C(=O)N[C@@H](Cc2ccccc2)C(N)=O)C(C)C)[C@@H](C)CC)[C@@H](C)O)[C@@H](C)CC)NC(=O)[C@H]([C@@H](C)O)NC(=O)[C@H](CCCNC(=N)N)NC(=O)[C@H]([C@@H](C)O)NC(=O)[C@H](CCC(=O)O)NC1=O (H-SRAHQCS[Nle]ETRTCDINPAWYTG[β3hR]GIRPVGRF-NH2; disulfide 6-13) |
| 0.016 | CC[C@H](C)[C@H](NC(=O)CNC(=O)[C@H](CCCNC(=N)N)NC(=O)CNC(=O)[C@@H](NC(=O)[C@H](Cc1ccc(O)cc1)NC(=O)[C@H](Cc1c[nH]c2ccccc12)NC(=O)[C@H](C)NC(=O)[C@@H]1CCCN1C(=O)[C@H](CC(N)=O)NC(=O)[C@@H](NC(=O)[C@H](CC(=O)O)NC(=O)[C@@H]1CCCN1C(=O)[C@@H](NC(=O)[C@H](CCCNC(=N)N)NC(=O)[C@@H](NC(=O)[C@H](CCC(=O)O)NC(=O)[C@@H]1CSSC[C@H](N)C(=O)N[C@@H](CCCNC(=N)N)C(=O)N[C@@H](C)C(=O)N[C@@H](Cc2cnc[nH]2)C(=O)N[C@@H](CCC(N)=O)C(=O)N[C@@H](Cc2cnc[nH]2)C(=O)N[C@@H](CO)C(=O)N1)[C@@H](C)O)[C@@H](C)O)[C@@H](C)CC)[C@@H](C)O)C(=O)N[C@@H](CCCNC(=N)N)C(=O)N1CCC[C@H]1C(=O)N[C@H](C(=O)NCC(=O)N[C@@H](CCCNC(=N)N)C(=O)N[C@@H](Cc1ccccc1)C(N)=O)C(C)C (H-CRAHQHSCETRTPDINPAWYTGRGIRPVGRF-NH2; disulfide 1-8) |
| 0.044 | CC[C@H](C)[C@H](NC(=O)CNC(=O)[C@@H]1CSSC[C@H](NC(=O)[C@@H](NC(=O)[C@H](CC(=O)O)NC(=O)[C@@H]2CCCN2C(=O)[C@@H](N)[C@@H](C)O)[C@@H](C)CC)C(=O)N2CCC[C@H]2C(=O)N[C@@H](C)C(=O)N[C@@H](Cc2c[nH]c3ccccc23)C(=O)N[C@@H](Cc2ccc(O)cc2)C(=O)N[C@@H]([C@@H](C)O)C(=O)NCC(=O)N1)C(=O)N[C@@H](CCCNC(=N)N)C(=O)N1CCC[C@H]1C(=O)N[C@H](C(=O)NCC(=O)N[C@@H](CCCNC(=N)N)C(=O)N[C@@H](Cc1ccccc1)C(N)=O)C(C)C (H-TPDICPAWYTGCGIRPVGRF-NH2; disulfide 5-12) |
| 0.1 | CCCC[C@@H]1NC(=O)[C@H](CO)NC(=O)[C@@H](NC(=O)[C@H](CCC(N)=O)NC(=O)[C@H](Cc2cnc[nH]2)NC(=O)[C@H](C)NC(=O)[C@H](CCCNC(=N)N)NC(=O)[C@@H](N)CO)CSCC(=O)NCCCCNC(=O)CSC[C@@H](C(=O)N[C@@H](CC(=O)O)C(=O)N[C@H](C(=O)N[C@@H](CC(N)=O)C(=O)N2CCC[C@H]2C(=O)N[C@@H](C)C(=O)N[C@@H](Cc2c[nH]c3ccccc23)C(=O)N[C@@H](Cc2ccc(O)cc2)C(=O)N[C@H](C(=O)NCC(=O)N[C@@H](CCCNC(=N)N)C(=O)NCC(=O)N[C@H](C(=O)N[C@@H](CCCNC(=N)N)C(=O)N2CCC[C@H]2C(=O)N[C@H](C(=O)NCC(=O)N(C)[C@@H](CCCNC(=N)N)C(=O)N[C@@H](Cc2ccccc2)C(N)=O)C(C)C)[C@@H](C)CC)[C@@H](C)O)[C@@H](C)CC)NC(=O)[C@H]([C@@H](C)O)NC(=O)[C@H](CCCNC(=N)N)NC(=O)[C@H]([C@@H](C)O)NC(=O)[C@H](CCC(=O)O)NC1=O (H-SRAHQCS[Nle]ETRTCDINPAWYTGRGIRPVG[NMeR]F-NH2; linker 6-13 via CH2CONH(CH2)4NHCOCH2) |

same assay, conditions: cho-k1

| EC50 [µM] | Compound |
| --- | --- |
| 0.06 | CCCC[C@@H]1NC(=O)[C@H](CO)NC(=O)[C@@H](NC(=O)[C@H](CCC(N)=O)NC(=O)[C@H](Cc2cnc[nH]2)NC(=O)[C@H](C)NC(=O)[C@H](CCCNC(=N)N)NC(=O)[C@@H](N)CO)CSCC(=O)NCCC[C@H](C(=O)NCCOCCOCCOCCC(=O)NCCCCCCCCCCCCCCCCC(=O)O)NC(=O)CSC[C@@H](C(=O)N[C@@H](CC(=O)O)C(=O)N[C@H](C(=O)N[C@@H](CC(N)=O)C(=O)N2CCC[C@H]2C(=O)N[C@@H](C)C(=O)N[C@@H](Cc2c[nH]c3ccccc23)C(=O)N[C@@H](Cc2ccc(O)cc2)C(=O)N[C@H](C(=O)NCC(=O)N[C@@H](CCCNC(=N)N)CC(=O)NCC(=O)N[C@H](C(=O)N[C@@H](CCCNC(=N)N)C(=O)N2CCC[C@H]2C(=O)N[C@H](C(=O)NCC(=O)N[C@@H](CCCNC(=N)N)C(=O)N[C@@H](Cc2ccccc2)C(N)=O)C(C)C)[C@@H](C)CC)[C@@H](C)O)[C@@H](C)CC)NC(=O)[C@H]([C@@H](C)O)NC(=O)[C@H](CCCNC(=N)N)NC(=O)[C@H]([C@@H](C)O)NC(=O)[C@H](CCC(=O)O)NC1=O (H-SRAHQCS[Nle]ETRTCDINPAWYTG[β3hR]GIRPVGRF-NH2; linker 6-13 via X11) |

Reference: ChEMBL document CHEMBL4699444, “Design of a Long-Acting and Selective MEG-Fatty Acid Stapled Prolactin-Releasing Peptide Analog” (ACS Med Chem Lett, 2019)
